Source: patent US20070049564A1 (Wyeth, priority 2005, published 2007)
In brackets after ≈: the same amount, converted by molar mass. Where two headings read alike, the source gives them in different places.

Experiments:
E. coli GC 2231 = experiment: MIC, broth microdilution; conditions: Escherichia coli
E. coli GC 2235 = experiment: MIC, broth microdilution; conditions: Escherichia coli
E. coli GC 2232 = experiment: MIC, broth microdilution; conditions: Escherichia coli
E. coli GC 2270 = experiment: MIC, broth microdilution; conditions: Escherichia coli
E. coli GC 2271 = experiment: MIC, broth microdilution; conditions: Escherichia coli
E. coli GC 4559 = experiment: MIC, broth microdilution; conditions: Escherichia coli
E. coli GC 4560 = experiment: MIC, broth microdilution; conditions: Escherichia coli
E. coli GC 3226 = experiment: MIC, broth microdilution; conditions: Escherichia coli
E. coli GC 2203 = experiment: MIC, broth microdilution; conditions: Escherichia coli
S. typhimurium GC 2172 = experiment: MIC, broth microdilution; conditions: Salmonella enterica, TYPHIMURIUM
P. aeruginosa GC 2214 = experiment: MIC, broth microdilution; conditions: Pseudomonas aeruginosa
S. aureus GC 6467 = experiment: MIC, broth microdilution; conditions: Staphylococcus aureus
S. aureus GC 2216 = experiment: MIC, broth microdilution; conditions: Staphylococcus aureus
S. aureus GC 6335 = experiment: MIC, broth microdilution; conditions: Staphylococcus aureus
E. faecalis GC 2267 = experiment: MIC, broth microdilution; conditions: Enterococcus faecalis
E. faecalis GC 2242 = experiment: MIC, broth microdilution; conditions: Enterococcus faecalis
E. faecium GC 4556 = experiment: MIC, broth microdilution; conditions: Enterococcus faecium
S. pneumoniae* GC 4465 = experiment: MIC, broth microdilution; conditions: Streptococcus pneumoniae
S. agalactiae GC 4564 = experiment: MIC, broth microdilution; conditions: Streptococcus agalactiae
Staph. aureus Smith = experiment: In vivo activity (oral, iv; ED50) against Staph. aureus Smith in mice
[1] = read-out: MINIMAL INHIBITORY CONCENTRATION MIC, Human Serum
[2] = read-out: MINIMAL INHIBITORY CONCENTRATION MIC, Mouse Serum
[3] = read-out: MINIMAL INHIBITORY CONCENTRATION MIC, Water

- MIC (E. coli GC 2231; GC2231, read-out: MINIMAL INHIBITORY CONCENTRATION MIC, Human Serum): 8 µg/mL (≈ 10.4 µM)
- MIC (E. coli GC 2231; GC2231, read-out: MINIMAL INHIBITORY CONCENTRATION MIC, Mouse Serum): 1 µg/mL (≈ 1.3 µM)
- MIC (E. coli GC 2231; GC2231, read-out: MINIMAL INHIBITORY CONCENTRATION MIC, Water): 64 µg/mL (≈ 83.1 µM)
- MIC (E. coli GC 2235; GC2235, read-out: MINIMAL INHIBITORY CONCENTRATION MIC, Human Serum): 4 µg/mL (≈ 5.2 µM)
- MIC (E. coli GC 2235; GC2235, read-out: MINIMAL INHIBITORY CONCENTRATION MIC, Mouse Serum): 1 µg/mL (≈ 1.3 µM)
- MIC (E. coli GC 2235; GC2235, read-out: MINIMAL INHIBITORY CONCENTRATION MIC, Water): 32 µg/mL (≈ 41.6 µM)
- MIC (E. coli GC 2232; GC2232, read-out: MINIMAL INHIBITORY CONCENTRATION MIC, Human Serum): 8 µg/mL (≈ 10.4 µM)
- MIC (E. coli GC 2232; GC2232, read-out: MINIMAL INHIBITORY CONCENTRATION MIC, Mouse Serum): 1 µg/mL (≈ 1.3 µM)
- MIC (E. coli GC 2232; GC2232, read-out: MINIMAL INHIBITORY CONCENTRATION MIC, Water): 32 µg/mL (≈ 41.6 µM)
- MIC (E. coli GC 2270; GC2270, read-out: MINIMAL INHIBITORY CONCENTRATION MIC, Human Serum): 8 µg/mL (≈ 10.4 µM)
- MIC (E. coli GC 2270; GC2270, read-out: MINIMAL INHIBITORY CONCENTRATION MIC, Mouse Serum): 1 µg/mL (≈ 1.3 µM)
- MIC (E. coli GC 2270; GC2270, read-out: MINIMAL INHIBITORY CONCENTRATION MIC, Water): 32 µg/mL (≈ 41.6 µM)
- MIC (E. coli GC 2271; GC2271, read-out: MINIMAL INHIBITORY CONCENTRATION MIC, Human Serum): 4 µg/mL (≈ 5.2 µM)
- MIC (E. coli GC 2271; GC2271, read-out: MINIMAL INHIBITORY CONCENTRATION MIC, Mouse Serum): 1 µg/mL (≈ 1.3 µM)
- MIC (E. coli GC 2271; GC2271, read-out: MINIMAL INHIBITORY CONCENTRATION MIC, Water): 32 µg/mL (≈ 41.6 µM)
- MIC (E. coli GC 4559; GC4559, read-out: MINIMAL INHIBITORY CONCENTRATION MIC, Human Serum): 16 µg/mL (≈ 20.8 µM)
- MIC (E. coli GC 4559; GC4559, read-out: MINIMAL INHIBITORY CONCENTRATION MIC, Mouse Serum): 2 µg/mL (≈ 2.6 µM)
- MIC (E. coli GC 4559; GC4559, read-out: MINIMAL INHIBITORY CONCENTRATION MIC, Water): 64 µg/mL (≈ 83.1 µM)
- MIC (E. coli GC 4560; GC4560, read-out: MINIMAL INHIBITORY CONCENTRATION MIC, Human Serum): 2 µg/mL (≈ 2.6 µM)
- MIC (E. coli GC 4560; GC4560, read-out: MINIMAL INHIBITORY CONCENTRATION MIC, Mouse Serum): 0.5 µg/mL (≈ 0.649 µM)
- MIC (E. coli GC 4560; GC4560, read-out: MINIMAL INHIBITORY CONCENTRATION MIC, Water): 4 µg/mL (≈ 5.2 µM)
- MIC (E. coli GC 3226; GC3226, read-out: MINIMAL INHIBITORY CONCENTRATION MIC, Human Serum): 8 µg/mL (≈ 10.4 µM)
- MIC (E. coli GC 3226; GC3226, read-out: MINIMAL INHIBITORY CONCENTRATION MIC, Mouse Serum): 1 µg/mL (≈ 1.3 µM)
- MIC (E. coli GC 3226; GC3226, read-out: MINIMAL INHIBITORY CONCENTRATION MIC, Water): 32 µg/mL (≈ 41.6 µM)
- MIC (E. coli GC 2203; GC2203, read-out: MINIMAL INHIBITORY CONCENTRATION MIC, Human Serum): 8 µg/mL (≈ 10.4 µM)
- MIC (E. coli GC 2203; GC2203, read-out: MINIMAL INHIBITORY CONCENTRATION MIC, Mouse Serum): 1 µg/mL (≈ 1.3 µM)
- MIC (E. coli GC 2203; GC2203, read-out: MINIMAL INHIBITORY CONCENTRATION MIC, Water): 32 µg/mL (≈ 41.6 µM)
- MIC (S. typhimurium GC 2172; [1]): 32 µg/mL (≈ 41.6 µM)
- MIC (S. typhimurium GC 2172; [2]): 4 µg/mL (≈ 5.2 µM)
- MIC (S. typhimurium GC 2172; [3]): > 64 µg/mL
- MIC (P. aeruginosa GC 2214; GC2214, read-out: MINIMAL INHIBITORY CONCENTRATION MIC, Human Serum): > 64 µg/mL
- MIC (P. aeruginosa GC 2214; GC2214, read-out: MINIMAL INHIBITORY CONCENTRATION MIC, Mouse Serum): 32 µg/mL (≈ 41.6 µM)
- MIC (P. aeruginosa GC 2214; GC2214, read-out: MINIMAL INHIBITORY CONCENTRATION MIC, Water): > 64 µg/mL
- MIC (S. aureus GC 6467; GC6467, read-out: MINIMAL INHIBITORY CONCENTRATION MIC, Human Serum): 0.25 µg/mL (≈ 0.325 µM)
- MIC (S. aureus GC 6467; GC6467, read-out: MINIMAL INHIBITORY CONCENTRATION MIC, Mouse Serum): 0.25 µg/mL (≈ 0.325 µM)
- MIC (S. aureus GC 6467; GC6467, read-out: MINIMAL INHIBITORY CONCENTRATION MIC, Water): 2 µg/mL (≈ 2.6 µM)
- MIC (S. aureus GC 2216; GC2216, read-out: MINIMAL INHIBITORY CONCENTRATION MIC, Human Serum): 0.5 µg/mL (≈ 0.649 µM)
- MIC (S. aureus GC 2216; GC2216, read-out: MINIMAL INHIBITORY CONCENTRATION MIC, Mouse Serum): 1 µg/mL (≈ 1.3 µM)
- MIC (S. aureus GC 2216; GC2216, read-out: MINIMAL INHIBITORY CONCENTRATION MIC, Water): 2 µg/mL (≈ 2.6 µM)
- MIC (S. aureus GC 6335; GC6335, read-out: MINIMAL INHIBITORY CONCENTRATION MIC, Human Serum): 1 µg/mL (≈ 1.3 µM)
- MIC (S. aureus GC 6335; GC6335, read-out: MINIMAL INHIBITORY CONCENTRATION MIC, Mouse Serum): 1 µg/mL (≈ 1.3 µM)
- MIC (S. aureus GC 6335; GC6335, read-out: MINIMAL INHIBITORY CONCENTRATION MIC, Water): 1 µg/mL (≈ 1.3 µM)
- MIC (E. faecalis GC 2267; GC2267, read-out: MINIMAL INHIBITORY CONCENTRATION MIC, Human Serum): 2 µg/mL (≈ 2.6 µM)
- MIC (E. faecalis GC 2267; GC2267, read-out: MINIMAL INHIBITORY CONCENTRATION MIC, Mouse Serum): 1 µg/mL (≈ 1.3 µM)
- MIC (E. faecalis GC 2267; GC2267, read-out: MINIMAL INHIBITORY CONCENTRATION MIC, Water): 4 µg/mL (≈ 5.2 µM)
- MIC (E. faecalis GC 2242; GC2242, read-out: MINIMAL INHIBITORY CONCENTRATION MIC, Human Serum): 1 µg/mL (≈ 1.3 µM)
- MIC (E. faecalis GC 2242; GC2242, read-out: MINIMAL INHIBITORY CONCENTRATION MIC, Mouse Serum): 1 µg/mL (≈ 1.3 µM)
- MIC (E. faecalis GC 2242; GC2242, read-out: MINIMAL INHIBITORY CONCENTRATION MIC, Water): 2 µg/mL (≈ 2.6 µM)
- MIC (E. faecium GC 4556; GC4556, read-out: MINIMAL INHIBITORY CONCENTRATION MIC, Human Serum): 1 µg/mL (≈ 1.3 µM)
- MIC (E. faecium GC 4556; GC4556, read-out: MINIMAL INHIBITORY CONCENTRATION MIC, Mouse Serum): 1 µg/mL (≈ 1.3 µM)
- MIC (E. faecium GC 4556; GC4556, read-out: MINIMAL INHIBITORY CONCENTRATION MIC, Water): 2 µg/mL (≈ 2.6 µM)
- MIC (S. pneumoniae* GC 4465; [1]): < 0.06 µg/mL
- MIC (S. pneumoniae* GC 4465; [2]): < 0.06 µg/mL
- MIC (S. pneumoniae* GC 4465; [3]): < 0.06 µg/mL
- MIC (S. agalactiae GC 4564; GC4564, read-out: MINIMAL INHIBITORY CONCENTRATION MIC, Human Serum): 0.25 µg/mL (≈ 0.325 µM)
- MIC (S. agalactiae GC 4564; GC4564, read-out: MINIMAL INHIBITORY CONCENTRATION MIC, Mouse Serum): 0.25 µg/mL (≈ 0.325 µM)
- MIC (S. agalactiae GC 4564; GC4564, read-out: MINIMAL INHIBITORY CONCENTRATION MIC, Water): 0.25 µg/mL (≈ 0.325 µM)
SMILES: CN(C)c1cc(NC(=O)CN(C(=O)OCOC(=O)C2CCCCC2)C(C)(C)C)c(O)c2c1C[C@H]1C[C@H]3[C@H](N(C)C)C(O)=C(C(N)=O)C(=O)[C@@]3(O)C(O)=C1C2=O [Example 50, ({[(2-{[(5aR,6aS,7S,10aS)-9-(aminocarbonyl)-4,7-bis(dimethylamino)-1,8,10a,11-tetrahydroxy-10,12-dioxo-5,5a,6,6a,7,10,10a,12-octahydrotetracen-2-yl]amino}-2-oxoethyl)(tert-butyl)amino]carbonyl}oxy)methyl cyclohexanecarboxylate]
- ED50 (Staph. aureus Smith; Staphylococcus aureus, in Mus musculus, iv, read-out: ED50 SIV (Staph aureus Smith)): 1.65 mg/kg
- ED50 (Staph. aureus Smith; Staphylococcus aureus, in Mus musculus, po, read-out: ED50 SOD (Staph aureus Smith)): 16.9 mg/kg
- ED50 (Staph. aureus Smith; Staphylococcus aureus, in Mus musculus, po, read-out: ED50 Staph Smith SOD): 16.9 mg/kg
- ED50 (Staph. aureus Smith; iv, read-out: ED50 Staph Smith SIV): 1.65 mg/kg
